Series [1] relates to Rabbits. It is filed as in vivo. How it is done:
(§1) The novel crystalline form of Cefamandole Nafate compound of the present invention was tested by toxic reaction tests shown as follows (taking the crystalline form of Cefamandole Nafate obtained in Example 1 for example):
Rabbits were injected with 0.4˜2.1 g of Cefamandole Nafate each time with the interval of 15 min, and recording the changes of blood pressure and electrocardiogram.

Series [2] has as its system Rabbits. Briefly: Toxic reaction test: 15-day daily intravenous injection in rabbits (renal). The settings on record: 250 mg/kg intravenously daily for 15 days. It is filed as in vivo. On the procedure: as §1
Rabbits were divided into 2 groups, every 4 animals in each group, and daily intravenously injected with 250 mg/kg Cefamandole Nafate for 15 days, while the control group was injected with 5 ml saline per day.

A short description of series [3]: Toxic reaction test: acute toxicity (LD50) in rats. The settings on record: rat, in vivo, intravenous injection. How it is done: as §1
(§2) Mice were divided into 4 dose groups by weights, every 10 animals in each group, and administered by intravenous injection, subcutaneous injection and intraperitoneal injection with a concentration of […].

Series [4] is described as follows: Storage stability of the crystalline product. The class given is physicochemical. On the procedure: Said method has the following advantageous effects: simple procedure, easy operation, and low energy consumption. The prepared product has a melting range of 160˜170° C. with good thermal stability, and is conducive to the long-term preservation. […] The product is easy to crush and processed into dosage forms of a pharmaceutical composition, as well as low cost, and easier to implement on commercial and industrial scale.

Series [5] can be described thus: Toxic reaction test: acute toxicity (LD50) in mice. The note with it: mouse, in vivo. On the procedure: as §1, §2
The mark [6] stands for this setting: anesthetized rabbits, intravenous injection, 0.4~2.1 g each time.
Setting [7] is: rabbits, dosage up to 4800 mg/kg.

Take `Cn1nnnc1SCC1=C(C(=O)[O-])N2C(=O)[C@@H](NC(=O)[C@H](OC=O)c3ccccc3)[C@H]2SC1.[Na+]` [Cefamandole Nafate, (6R, 7R)-7-R-(2-formyloxy-2-phenylacetamide)-3-[[(1-methyl-1H-tetrazol-5-yl)thio]methyl]-8-oxo-5-thia-1-azabicyclo [4.2.0] oct-2-ene-2-carboxylate sodium salt]: in the series on Rabbits [1] (setting [6]), the breathing entry is “deepened and accelerated”; the “electrocardiogram and heart rate” value is “did not change significantly”. The death entry with Rabbits [1] (rabbits, dosage further increased above 4800 mg/kg) is “death occurred”. Also, in the series on Rabbits [1] (setting [7]), the blood pressure result is reported as “significantly decreased”; the electrocardiogram result is “prolonged in P-R interval, depressed in ST segment, and ventricular arrhythmias”; the respiration result was “inhibited”. Further, in the series on Rabbits [2], the renal tissue concentration result is “increased” and the renal toxicity entry is given as “low”.

Turning to `Cn1nnnc1SCC1=C(C(=O)[O-])N2C(=O)[C@@H](NC(=O)[C@H](OC=O)c3ccccc3)[C@H]2SC1.[Na+]` [Example 1, (6R, 7R)-7-R-(2-formyloxy-2-phenylacetamide)-3-[[(1-methyl-1H-tetrazol-5-yl)thio]methyl]-8-oxo-5-thia-1-azabicyclo [4.2.0] oct-2-ene-2-carboxylate sodium salt], the LD50 (usually the dose expected to kill half of the subjects tested) in series [3] stood at 3420 mg/kg; in series [5] (intravenous injection) it was 4220 mg/kg; in series [5] (ip, intraperitoneal injection) it was 4500 mg/kg; in series [5] (sc, subcutaneous injection), 7260 mg/kg. The “degradation after placing for a long time” value in series [4] is reported as “without degradation”.
